# Laboratory results taken from patent US7662825B2, “N-pyrazinyl-phenylsulphonamides and their use in the treatment of chemokine mediated diseases” (AstraZeneca AB, priority 2002, dated 2010).
row,melting point,Compound
1,146 to 148 °C,COC(=O)CCSc1cnc(NS(=O)(=O)c2cccc(Cl)c2Cl)c(OC)n1 [Example 117]
2,146 to 148 °C,"COc1nc(Br)c(C)nc1NS(=O)(=O)c1cccc(Cl)c1Cl [Example 118, 2,3-Dichloro-N-[5-bromo-3-methoxy-6-methyl-2-pyrazinyl)benzenesulphonamide]"
3,175 to 177 °C,"COc1nc(CO)c(C)nc1NS(=O)(=O)c1cccc(Cl)c1Cl [Example 120, 2,3-Dichloro-N-[5-(hydroxymethyl)-3-methoxy-6-methyl-2-pyrazinyl)benzenesulphonamide]"
4,156 to 157 °C,"COc1nc(Cl)cnc1NS(=O)(=O)c1cccc(Cl)c1F [Example 122, 3-Chloro-N-(5-chloro-3-methoxy-2-pyrazinyl)-2-fluorobenzenesulphonamide]"
5,177 to 178 °C,"COC(=O)c1nccnc1NS(=O)(=O)c1cccc(Cl)c1Cl [Example 124, 3-{[(2,3-Dichlorophenyl)sulphonyl]amino}pyrazine-2-carboxylic acid, methyl ester]"
6,177 to 178 °C,"COc1nc(Br)c(Cl)nc1NS(=O)(=O)c1cccc(Cl)c1Cl [Example 125, N-(5-Bromo-6-chloro-3-methoxy-2-pyrazinyl)-2,3-dichlorobenzenesulphonamide]"
7,200 to 201 °C,"COC(=O)c1nc(OC)c(NS(=O)(=O)c2cccc(Cl)c2Cl)nc1Cl [Example 126, 3-Chloro-5-{[(2,3-dichlorophenyl)sulphonyl]amino}-6-methoxypyrazine-2-carboxylic acid, methyl ester]"
8,145 to 147 °C,"COc1nc(CO)c(Cl)nc1NS(=O)(=O)c1cccc(Cl)c1Cl [Example 127, 2,3-Dichloro-N-[6-chloro-5-(hydroxymethyl)-3-methoxypyrazin-2-yl]benzenesulphonamide]"
9,187 to 188 °C,"COc1ccc(COc2nccnc2NS(=O)(=O)c2cccc(Cl)c2Cl)cn1 [Example 128, 2,3-Dichloro-N-{3-[(6-methoxy-3-pyridinyl)methoxy]-2-pyrazinyl}benzenesulphonamide]"
10,193 to 196 °C,"COCc1nc(OC)c(NS(=O)(=O)c2cccc(Cl)c2Cl)nc1Cl [Example 129, 2,3-Dichloro-N-[6-chloro-3-methoxy-5-(methoxymethyl)-2-pyrazinyl]benzenesulphonamide]"
11,159 to 159.5 °C,"COc1nc(Cl)cnc1NS(=O)(=O)c1cccc(F)c1Cl [Example 130, 2-Chloro-N-(5-chloro-3-methoxy-2-pyrazinyl)-3-fluorobenzenesulphonamide]"
12,144 to 145 °C,"COc1nccnc1NS(=O)(=O)c1cccc(F)c1Cl [Example 131, 2-Chloro-3-fluoro-N-(3-methoxy-2-pyrazinyl)benzenesulphonamide]"
13,151 to 152 °C,"COc1cccc(S(=O)(=O)Nc2nccnc2OC)c1Cl [Example 132, 2-Chloro-3-methoxy-N-(3-methoxy-2-pyrazinyl)benzenesulphonamide]"
14,199 to 200 °C,"O=S(=O)(Nc1ncc(Br)nc1OC[C@@H]1CCCN1)c1cccc(Cl)c1Cl [Example 133, N-[5-Bromo-3-[(2S)-2-pyrrolidinylmethoxy]-2-pyrazinyl]-2,3-dichlorobenzenesulphonamide]"
15,209 to 210 °C,"COC(=O)c1cnc(NS(=O)(=O)c2cccc(Cl)c2Cl)c(OCc2cccnc2)n1 [Example 134, 5-(2,3-Dichlorobenzenesulphonylamino)-6-(3-pyridinylmethoxy)pyrazine-2-carboxylic acid, methyl ester]"
16,174 to 178 °C,"NC(=O)c1cnc(NS(=O)(=O)c2cccc(Cl)c2Cl)c(OCc2cccnc2)n1 [Example 135, 5-{[(2,3-Dichlorophenyl)sulphonyl]amino}-6-(3-pyridinylmethoxy)-2-pyrazinecarboxamide]"
17,210 °C (dec.),"O=S(=O)(Nc1ncc(-c2ccncc2)nc1OCc1cccnc1)c1cccc(Cl)c1Cl [Example 136, 2,3-Dichloro-N-[5-(4-pyridinyl)-3-(3-pyridinylmethoxy)-2-pyrazinyl]benzenesulphonaminde]"
18,160 to 161 °C,COc1nc(CO)cnc1NS(=O)(=O)c1cccc(Cl)c1Cl [Example 138]
19,120 to 121 °C,"C=CCOc1cnc(NS(=O)(=O)c2cccc(Cl)c2Cl)c(OC)n1 [Example 139, N-(5-Allyloxy-3-methoxy-2-pyrazinyl)-2,3-dichlorobenzenesulphonamide]"
20,155 °C (dec.),"COc1nc(COc2cnccn2)cnc1NS(=O)(=O)c1cccc(Cl)c1Cl [Example 140, 2,3-Dichloro-N-{3-methoxy-5-[(pyrazinyloxy)methyl]-2-pyrazinyl}benzenesulphonamide]"
21,199 to 201 °C,"O=S(=O)(Nc1ncc(Cl)nc1OCc1cncc(Br)c1)c1cccc(Cl)c1Cl [Example 142, N-{3-[(5-Bromo-3-pyridinyl)methoxy]-5-chloro-2-pyrazinyl}-2,3-dichlorobenzenesulphonamide]"

row,melting point,Compound
1,220 °C,"O=S(=O)(Nc1ncc(Cl)nc1OCc1cccc(CO)n1)c1cccc(Cl)c1Cl [Example 143, 2,3-Dichloro-N-[5-chloro-3-{[6-(hydroxymethyl)-2-pyridinyl]methoxy}-2-pyrazinyl]benzenesulphonamide]"
2,172 to 173 °C,"Cc1nc(COc2nc(Cl)cnc2NS(=O)(=O)c2cccc(Cl)c2Cl)co1 [Example 144, 2,3-Dichloro-N-{5-chloro-3-[(2-methyl-4-oxazolyl)methoxy]-2-pyrazinyl}benzenesulphonamide]"
3,96 to 97 °C,"CCOc1cnc(NS(=O)(=O)c2cccc(Cl)c2Cl)c(OC)n1 [Example 166, 2,3-Dichloro-N-(5-ethoxy-3-methoxy-2-pyrazinyl)benzenesulphonamide]"
4,248 to 249 °C,"COc1nc(-n2cncn2)cnc1NS(=O)(=O)c1cccc(Cl)c1Cl [Example 167, 2,3-Dichloro-N-[3-methoxy-5-([1,2,4]-1-triazolyl)-2-pyrazinyl]benzenesulphonamide]"
5,150 to 152 °C,"CNC(=O)CSc1cnc(NS(=O)(=O)c2cccc(Cl)c2Cl)c(OC)n1 [Example 168, 2-[5-(2,3-Dichlorobenzenesulphonylamino)-6methoxy-2-pyrazinylsulphanyl]-N-methylacetamide]"
6,163 to 164 °C,"COc1nc(SCC(N)=O)cnc1NS(=O)(=O)c1cccc(Cl)c1Cl [Example 169, 2-[5-(2,3-Dichlorobenzenesulphonylamino)-6-methoxy-2-pyrazinylsulphanyl]acetamide]"
7,119 to 120 °C,"COc1nc(SCc2ccc(F)cc2)cnc1NS(=O)(=O)c1cccc(Cl)c1Cl [Example 170, 2,3-Dichloro-N-[5-(4-fluorobenzylsulphanyl)-3-methoxy-2-pyrazinyl]benzenesulphonamide]"
8,158 to 159 °C,"COc1nc(SCC#N)cnc1NS(=O)(=O)c1cccc(Cl)c1Cl [Example 171, 2,3-Dichloro-N-[5-cyanomethylsulphanyl-3-methoxy-2-pyrazinyl]benzenesulphonamide]"
9,154 to 156 °C,"COc1nc(SCc2ncon2)cnc1NS(=O)(=O)c1cccc(Cl)c1Cl [Example 172, 2,3-Dichloro-N-[3-methoxy-5-([1,2,4]-3-oxadiazolylmethylsulphanyl)-2-pyrazinyl]benzenesulphonamide]"
10,189 to 190 °C,"COc1nc(SCCN)cnc1NS(=O)(=O)c1cccc(Cl)c1Cl [Example 173, N-[5-(2-Aminoethylsulphanyl)-3-methoxy-2-pyrazinyl]-2,3-dichlorobenzenesulphonamide]"
11,142 to 143 °C,COc1nc(OCc2cc(C)on2)cnc1NS(=O)(=O)c1cccc(Cl)c1Cl [Example 174]
12,114 to 115 °C,"COc1nc(OCc2ccc(CN(C)C)o2)cnc1NS(=O)(=O)c1cccc(Cl)c1Cl [Example 175, 2,3-Dichloro-N-[5-(5-dimethylaminomethyl-2-furanylmethoxy)-3-methoxy-2-pyrazinyl]benzenesulphonamide]"
13,206 to 207 °C,"CN(C)Cc1ccc(COc2nc(Br)cnc2NS(=O)(=O)c2cccc(Cl)c2Cl)o1 [Example 176, N-[5-Bromo-3-(5-dimethylaminomethyl-2-furanylmethoxy)-2-pyrazinyl]-2,3-dichloro-benzenesulphonamide]"
14,180 to 181 °C,"COc1nc(SCCO)cnc1NS(=O)(=O)c1cccc(Cl)c1Cl [Example 177, 2,3-Dichloro-N-[5-(2-hydroxyethylsulphanyl)-3-methoxy-2-pyrazinyl]benzenesulphonamide]"
15,209 to 210 °C,"CN(C)Cc1ccc(COc2ncc(Cl)nc2NS(=O)(=O)c2cccc(Cl)c2Cl)o1 [Example 180, 2,3-Dichloro-N-[6-chloro-3-(5-dimethylaminomethyl-2-furanylmethoxy)-2-pyrazinyl]benzenesulphonamide]"
16,209 to 210 °C,"CN(C)Cc1ccc(COc2nc(Cl)cnc2NS(=O)(=O)c2cccc(Cl)c2Cl)o1 [Example 182, 2,3-Dichloro-N-[5-chloro-3-(5-dimethylaninomethyl-2-furanylmethoxy)-2-pyrazinyl]benzenesulphonamide]"
17,198 to 199 °C,"CNCc1ccc(COc2nccnc2NS(=O)(=O)c2cccc(Cl)c2Cl)o1 [Example 183, 2,3-Dichloro-N-[3-(5-methylaminomethyl-2-furanylmethoxy)-2-pyrazinyl]benzenesulphonamide]"
18,190 to 191.5 °C,"COc1nc(Br)cnc1NS(=O)(=O)c1ccccc1C#N [Example 184, N-(5-Bromo-3-methoxypyrazinyl)-2-cyanobenzenesulphonamide]"
19,208 to 211 °C,"COc1nc(Br)cnc1NS(=O)(=O)c1ccc(F)c(Cl)c1Cl [Example 185, N-(5-Bromo-3-methoxypyrazinyl)-2,3-dichloro-4-fluorobenzenesulphonamide]"
20,145 to 146 °C,"C=CCOc1nc(Cl)cnc1NS(=O)(=O)c1cccc(Cl)c1Cl [Example 187, N-(3-Allyloxy-5-chloro-2-pyrazinyl)-2,3-dichlorobenzenesulphonamide]"
21,138 to 139 °C,"C#CCOc1nc(Cl)cnc1NS(=O)(=O)c1cccc(Cl)c1Cl [Example 188, 2,3-Dichloro-N-[5-chloro-3-(2-propynyloxy)-2-pyrazinyl]benzenesulphonamide]"
